Measurements taken from patent US20250136576A1, “Heterocyclic Compounds and Uses Thereof” (ACEA Therapeutics, Inc., priority 2021, published 2025).
Where two headings read alike, the source gives them in different places.

Test system: KM12-luc cells
Experiment: Cell proliferation and growth inhibition assay (CCK-8) in KM12-luc
Type: cell-based
Conditions: KM12-luc cells, treated with test compounds for 72 hrs, CCK-8 viability, read-out: NTRK IC50 in KM12-luc
In short: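 IC50 values were fitted by sigmoidal dose-response non-linear regression of CCK-8 OD450 absorbance after 1-4 hrs with reagent. Culture media were IMDM for MV-4-11, RPMI 1640 for H1975 and DMEM for KM12-luc, each with 10% FBS at 37 °C, 5% CO2.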

Row | SMILES | IC50 (KM12-Luc, 72 h) [nM] | IC50 [nM]
1 | CC(=O)Nc1cc(Nc2ncc(Cl)c(-c3c[nH]c4ccccc34)n2)ccc1NC(=O)CN(C)C [Compound 393, N-(2-acetamido-4-((5-chloro-4-(1H-indol-3-yl)pyrimidin-2-yl)amino)phenyl)-2-(dimethylamino)acetamide] | 23.1 | –
2 | CC(=O)Nc1cc(Nc2ncc(Cl)c(-c3c[nH]c4ccccc34)n2)ccc1NC(=O)CCN(C)C [Compound 394a, N-(2-acetamido-4-((5-chloro-4-(1H-indol-3-yl)pyrimidin-2-yl)amino)phenyl)-3-(dimethylamino)propanamide] | 29.1 | –
3 | Cc1nc2ccc(Nc3ncc(Cl)c(-c4c[nH]c5ccccc45)n3)cc2[nH]1 [Compound 394b, N-(5-chloro-4-(1H-indol-3-yl)pyrimidin-2-yl)-2-methyl-1H-benzo[d]imidazol-6-amine] | 131 | –
4 | CC(=O)Nc1cc(Nc2ncc(Cl)c(-c3cn(C)c4ccccc34)n2)ccc1N(C)CCN(C)C [Compound 395, N-(5-((5-chloro-4-(1-methyl-1H-indol-3-yl)pyrimidin-2-yl)amino)-2-((2-(dimethylamino)ethyl)(methyl)amino)phenyl)acetamide] | 77.3 | –
5 | CC(=O)Nc1cc(Nc2ncc(Cl)c(-c3cn(C)c4ccccc34)n2)cc(F)c1N(C)CCN(C)C [Compound 396, N-(5-((5-chloro-4-(1-methyl-1H-indol-3-yl)pyrimidin-2-yl)amino)-2-((2-(dimethylamino)ethyl)(methyl)amino)-3-fluorophenyl)acetamide] | 80.3 | –
6 | CCN(CCN(C)C)c1ccc(Nc2ncc(Cl)c(-c3cn(C)c4ccccc34)n2)cc1NC(C)=O [Compound 397, N-(5-((5-chloro-4-(1-methyl-1H-indol-3-yl)pyrimidin-2-yl)amino)-2-((2-(dimethylamino)ethyl)(ethyl)amino)phenyl)acetamide] | 180 | –
7 | CCN(CCN(C)C)c1c(F)cc(Nc2ncc(Cl)c(-c3cn(C)c4ccccc34)n2)cc1NC(C)=O [Compound 398, N-(5-((5-chloro-4-(1-methyl-1H-indol-3-yl)pyrimidin-2-yl)amino)-2-((2-(dimethylamino)ethyl)(ethyl)amino)-3-fluorophenyl)acetamide] | 196 | –
8 | Cc1nc2cc(Nc3ncc(Cl)c(-c4cn(C)c5ccccc45)n3)ccc2n1CCN(C)C [Compound 400b, N-(5-chloro-4-(1-methyl-1H-indol-3-yl)pyrimidin-2-yl)-1-(2-(dimethylamino)ethyl)-2-methyl-1H-benzo[d]imidazol-5-amine] | 71.5 | –
9 | CC(=O)Nc1cc(Nc2ncc(Cl)c(-c3cn(C)c4ccccc34)n2)cc(F)c1N1CCC(N(C)C)C1 (stereo not shown) [Compound 401, N-(5-((5-chloro-4-(1-methyl-1H-indol-3-yl)pyrimidin-2-yl)amino)-2-(3-(dimethylamino)pyrrolidin-1-yl)-3-fluorophenyl)acetamide] | 49.5 | –
10 | CC(=O)Nc1cc(Nc2ncc(Cl)c(-c3cn(C)c4ccccc34)n2)ccc1N(C)C(=O)CN(C)C [Compound 403, N-(2-acetamido-4-((5-chloro-4-(1-methyl-1H-indol-3-yl)pyrimidin-2-yl)amino)phenyl)-2-(dimethylamino)-N-methylacetamide] | 46.5 | –
11 | CC(=O)Nc1cc(Nc2ncc(Cl)c(-c3cn(C)c4ccccc34)n2)ccc1N(C)C(=O)CCN(C)C [Compound 404, N-(2-acetamido-4-((5-chloro-4-(1-methyl-1H-indol-3-yl)pyrimidin-2-yl)amino)phenyl)-3-(dimethylamino)-N-methylpropanamide] | 26.5 | –
12 | CCN(C(=O)CN(C)C)c1ccc(Nc2ncc(Cl)c(-c3cn(C)c4ccccc34)n2)cc1NC(C)=O [Compound 405, N-(2-acetamido-4-((5-chloro-4-(1-methyl-1H-indol-3-yl)pyrimidin-2-yl)amino)phenyl)-2-(dimethylamino)-N-ethylacetamide] | > 1000 | –
13 | CCN(C(=O)CCN(C)C)c1ccc(Nc2ncc(Cl)c(-c3cn(C)c4ccccc34)n2)cc1NC(C)=O [Compound 406, N-(2-acetamido-4-((5-chloro-4-(1-methyl-1H-indol-3-yl)pyrimidin-2-yl)amino)phenyl)-3-(dimethylamino)-N-ethylpropanamid] | 60.1 | –
14 | CC(=O)Nc1cc(Nc2ncc(Cl)c(-c3cn(C)c4ccccc34)n2)ccc1NC(=O)CN(C)C [Compound 407, N-(2-acetamido-4-((5-chloro-4-(1-methyl-1H-indol-3-yl)pyrimidin-2-yl)amino)phenyl)-2-(dimethylamino)acetamide] | 44.4 | –
15 | CC(=O)Nc1cc(Nc2ncc(Cl)c(-c3cn(C)c4ccccc34)n2)ccc1NC(=O)CCN(C)C [Compound 408, N-(2-acetamido-4-((5-chloro-4-(1-methyl-1H-indol-3-yl)pyrimidin-2-yl)amino)phenyl)-3-(dimethylamino)propanamide] | 19.7 | –
16 | CN(C)CCN(C)c1ccc(Nc2ncc(Cl)c(-c3c[nH]c4c(F)cccc34)n2)cc1N [Compound 411, N^4-(5-chloro-4-(7-fluoro-1H-indol-3-yl)pyrimidin-2-yl)-N^1-(2-(dimethylamino)ethyl)-N^1-methylbenzene-1,2,4-triamine] | 12.8 | –

Row | SMILES | IC50 (KM12-Luc, 72 h) [nM] | IC50 [nM]
17 | CN(C)CCN(C)c1ccc(Nc2ncc(Cl)c(-c3cn(C)c4c(F)cccc34)n2)cc1N [Compound 417, N^4-(5-chloro-4-(7-fluoro-1-methyl-1H-indol-3-yl)pyrimidin-2-yl)-N^1-(2-(dimethylamino)ethyl)-N^1-methylbenzene-1,2,4-triamine] | 94.2 | –
18 | CC(=O)Nc1cc(Nc2ncc(Cl)c(-c3cn(C)c4c(F)cccc34)n2)ccc1N(C)CCN(C)C [Compound 418, N-(5-((5-chloro-4-(7-fluoro-1-methyl-1H-indol-3-yl)pyrimidin-2-yl)amino)-2-((2-(dimethylamino)ethyl)(methyl)amino)phenyl)acetamide] | 79.2 | –
19 | Cc1cccc2c(-c3nc(Nc4ccc(N(C)CCN(C)C)c(N)c4)ncc3Cl)cn(C)c12 [Compound 428, N^4-(5-chloro-4-(1,7-dimethyl-1H-indol-3-yl)pyrimidin-2-yl)-N^1-(2-(dimethylamino)ethyl)-N^1-methylbenzene-1,2,4-triamine] | 46.4 | –
20 | CC(=O)Nc1cc(Nc2ncc(Cl)c(-c3cn(C)c4c(C)cccc34)n2)ccc1N(C)CCN(C)C [Compound 429, N-(5-((5-chloro-4-(1,7-dimethyl-1H-indol-3-yl)pyrimidin-2-yl)amino)-2-((2-(dimethylamino)ethyl)(methyl)amino)phenyl)acetamide] | 475 | –
21 | COc1cccc2c(-c3nc(Nc4ccc(N(C)CCN(C)C)c(NC(C)=O)c4)ncc3Cl)cn(C)c12 [Compound 434, N-(5-(5-chloro-4-(7-methoxy-1-methyl-1H-indol-3-yl)pyrimidin-2-ylamino)-2-((2-(dimethylamino)ethyl)(methyl)amino)phenyl)acetamide] | 97.1 | –
22 | COc1cccc2c(-c3nc(Nc4ccc(N(C)CCN(C)C)c(N)c4)ncc3Cl)cn(C)c12 [Compound 437, N^4-(5-chloro-4-(7-methoxy-1-methyl-H-indol-3-yl)pyrimidin-2-yl)-N^1-(2-(dimethylamino)ethyl)-N^1-methylbenzene-1,2,4-triamine] | 109 | –
23 | CC(=O)Nc1cc(Nc2ncc(Cl)c(-c3c[nH]c4ccccc34)n2)ccc1N(C)CCN(C)C [Compound 440] | – | 7
24 | CC(=O)Nc1cc(Nc2ncc(Cl)c(-c3c[nH]c4ccccc34)n2)cc(F)c1N(C)CCN(C)C [Compound 441, N-(5-((5-chloro-4-(1H-indol-3-yl)pyrimidin-2-yl)amino)-2-((2-(dimethylamino)ethyl)(methyl)amino)-3-fluorophenyl)acetamide] | 24.9 | –
25 | CCN(CCN(C)C)c1c(F)cc(Nc2ncc(Cl)c(-c3c[nH]c4ccccc34)n2)cc1NC(C)=O [Compound 443, N-(5-((5-chloro-4-(1H-indol-3-yl)pyrimidin-2-yl)amino)-2-((2-(dimethylamino)ethyl) (ethyl)amino)-3-fluorophenyl)acetamide] | 33.3 | –
26 | CCN(C(=O)CN(C)C)c1ccc(Nc2ncc(Cl)c(-c3c[nH]c4ccccc34)n2)cc1N [Compound 448, N-(2-amino-4-((5-chloro-4-(1H-indol-3-yl)pyrimidin-2-yl)amino)phenyl)-2-(dimethylamino)-N-ethylacetamide] | > 1000 | –
27 | CCN(C(=O)CN(C)C)c1ccc(Nc2ncc(Cl)c(-c3c[nH]c4ccccc34)n2)cc1NC(C)=O [Compound 449, N-(2-acetamido-4-((5-chloro-4-(1H-indol-3-yl)pyrimidin-2-yl)amino)phenyl)-2-(dimethylamino)-N-ethylacetamide] | > 1000 | –
28 | CCN(C(=O)CCN(C)C)c1ccc(Nc2ncc(Cl)c(-c3c[nH]c4ccccc34)n2)cc1NC(C)=O [Compound 451, N-(2-acetamido-4-((5-chloro-4-(1H-indol-3-yl)pyrimidin-2-yl)amino)phenyl)-3-(dimethylamino)-N-ethylpropanamide] | 14.2 | –
29 | CN1CCN(c2ccc(C(=O)Nc3c[nH]c4cnc(Nc5cc(F)cc(F)c5)nc34)c(NC3CCOCC3)c2)CC1 [Compound 491, N-(2-((3,5-difluorophenyl)amino)-5H-pyrrolo[3,2-d]pyrimidin-7-yl)-4-(4-methylpiperazin-1-yl)-2-((tetrahydro-2H-pyran-4-yl)amino)benzamide] | > 3330 | –
30 | CN(C)CCN(C)c1ccc(C(=O)Nc2c[nH]c3cnc(Nc4cc(F)cc(F)c4)nc23)c(NC2CCOCC2)c1 [Compound 493, N-(2-((3,5-difluorophenyl)amino)-5H-pyrrolo[3,2-d]pyrimidin-7-yl)-4-((2-(dimethylamino)ethyl)(methyl)amino)-2-((tetrahydro-2H-pyran-4-yl)amino)benzamide] | > 10000 | –
31 | COCCCN(C)c1cc(N2CCN(C)CC2)ccc1C(=O)Nc1c[nH]c2cnc(Nc3cc(F)cc(F)c3)nc12 [Compound 494, N-(2-((3,5-difluorophenyl)amino)-5H-pyrrolo[3,2-d]pyrimidin-7-yl)-2-((3-methoxypropyl)(methyl)amino)-4-(4-methylpiperazin-1-yl)benzamide] | > 1000 | –
